This is an account of results in patent US10815272B2, “CD31 peptides” (INSTITUT NATIONAL DE LA SANTE ET DE LA RECHERCHE MEDICALE …, priority 2012, dated 2020).

Where “and” joins values, the source holds several entries; their conditions need not be identical. Identical values can stand only once. Non-standard residues stand in square brackets, D forms with d. Residues, ends and D or L forms follow the SMILES beside them. No end group written: not given here.

The nature of series [1]: solubility comparison of peptides. In kind it is physicochemical. The settings on record: for maximum soubility: in the minimal solvent. The text has this: (§1) The solubility, activity and stability (resistance to freezing/thawing) of the P8F and P8RI peptides were compared to previously used peptides comprising the membrane-proximal sequences of CD31.
For series [2], the system named is occlusive thrombus in apoE KO mice. The series can be described thus: acute thrombosis model, ligation of the left common carotid artery in atherosclerotic apoE KO mice. The series is classed as in vivo. The protocol:
Atherosclerotic mice were treated with P8F at 2.5, 5 or 10 mg/kg/day, with aspirin as a positive control and vehicle as a negative control.
The width of the columns is proportional to the number of mice included in each group (Aspirin=5, “2.5”=7, “5”=11, “10”=7, Vehicle=8). P<0.05 for all groups vs vehicle (Veh).
The P8F sequence was also used in vivo (subcutaneous administration of different doses: 2.5, 5 and 10 mg/kg/d) in atherosclerotic mice (apoE KO, 35 weeks of age, male, chow diet) subjected to the ligation of the left common carotid artery (a model of acute thrombosis). Due to advanced age, most of the mice had already developed an atherosclerotic lesion close to the site where the ligation was performed.

Series [3] has as its system Jurkat T cells. Description: calcium mobilization test using Jurkat T cells after TCR stimulation. In kind it is cell-based. The method, then:
Jurkat T cells were preincubated with the fluo 3-AM calcium probe and stimulated by cross-linking the TCR with anti-CD3 antibodies and secondary antibody F(ab′)2 fragments.
Jurkat T cells (10×10^6/ml) were preincubated with the fluo 3-AM calcium probe and stimulated by cross-linking the TCR with anti-CD3 antibodies and secondary antibody F(ab′)2 fragments.
Activity was determined using the calcium mobilization test using Jurkat T cells, as described above.

Series [4] has as its system human platelet aggregation. Description: platelet aggregation on collagen-coated microcapillaries under flow (whole blood perfusion). The settings on record: soluble peptide, 1500 seconds^−1, first 5 minutes. In kind it is cell-based. The method, then: The microcapillaries of Vena8 Fluoro+™ biochip (400 μm width×100 μm depth×20 mm length, Cellix) were coated with 2.5 mg/ml insoluble horse type I collagen overnight at 4° C. and then blocked with 0.1% HSA for 1 hour at room temperature. Human peripheral whole blood, anticoagulated with P-PACK (a direct thrombin inhibitor, non-chelating agent) was labeled with 5 μM DiOC6 for 10 minutes before perfusion with the Cellix pump at 1500 seconds^−1 through the coated capillaries. The interaction of platelets with the matrix was viewed in real time under a fluorescence microscope and was saved for off-line analysis. The surface covered by aggregated platelets was analyzed frame by frame (24 frames/s) over the first 5 minutes and expressed as coverage %.

A short description of series [5]: stability, resistance to repeated freeze-thaw cycles (loss of activity). In kind it is physicochemical. The settings on record: number of cycles after which activity was diminished or abolished. The protocol: as §1
Stability was determined by subjecting the peptides to repeated freeze-thaw cycles and determining the number of cycles after which ED 50 was increased and/or biological activity abolished.

Regarding `CC(C)C[C@@H](NC(=O)[C@@H](C)NC(=O)[C@H]1CCCN1C(=O)[C@@H](Cc1c[nH]c2ccccc12)NC(=O)[C@H](N)CCCCN)C(=O)N[C@H](Cc1ccccc1)C(=O)N[C@@H](C(=O)N[C@H](CCCNC(=N)N)C(=O)O)C(C)C` [P8RI, H-kwpalfvr-OH] (H-[dK][dW][dP][dA][dL][dF][dV][dR]-OH), in series [1], the minimal solvent entry is recorded as “water”, the solubility in water result is recorded as “soluble in water” and the maximum soubility was 30.5 mg/mL.
For the molecule `CC(=O)Oc1ccccc1C(=O)O` [aspirin, reference compound], the occlusive thrombus found entry in series [2] (aspirin s.c. 150 mg/kg/d) is reported as “No occlusive thrombus”.
With H-RVFLAPWK-OH [P8F], the “intracellular calcium mobilization (median fluorescence intensity of fluo-3AM probe)” value in series [3] (60 μg/ml peptide, Jurkat cells, TCR stimulation with anti-CD3 + F(ab')2) is “delayed and reduced”. Further, the EC50 in series [3] (Jurkat cells stimulated with antiCD3+Fab antibodies, read-out: ED 50 (minimal dose producing 50 percent of the maximum obtainable inhibition of intracellular calcium mobilization)) worked out at 25 µM. Further, the “human platelet aggregation (surface coverage %)” value in series [4] is recorded as “inhibit human platelet aggregation in a dose dependent manner”. For the same molecule, in series [2] (5 mg/Kg/d s.c., vs aspirin 150 mg/kg/d s.c.), the “antithrombotic effect relative to reference drug” value was “same extent of antithrombotic effect as the reference drug”. Also, in series [2] (5 mg/ml group (so in the source)), the occlusive thrombus found entry is “No occlusive thrombus”. For the same molecule, the “number of sections showing an occlusive thrombus, out of 1000 sections/sample” value in series [2] (P8F-treated mice vs vehicle) is recorded as “significantly lowered”. For the same molecule, the “appearance of an occlusive thrombus” value in series [2] (s.c. 2.5, 5 and 10 mg/kg/d, all tested doses) was “effective in preventing the appearance of an occlusive thrombus”. In series [1], the minimal solvent result is “water”, the solubility in water result was “soluble in water” and the maximum soubility amounted to 28.1 mg/mL. In addition, the maximum freeze/thaw cycles in series [5] is 3 cycles.
As to “SMRTSPRSSTLAVRVFLAPWKK [P22 mouse, reference compound]”, in series [1], the minimal solvent was 10% Acetonitrile, and 5% acetic acid; the maximum soubility turned out to be 15.9 mg/mL.
As for VRVFLAPWKK [PepReg, reference compound], in series [1], the minimal solvent was 10% Acetonitrile, and 5% acetic acid; the maximum soubility worked out at 8.1 mg/mL.
